The values below come from patent US20100197584A1, “USE OF CURCUMIN TO BLOCK BRAIN TUMOR FORMATION IN MICE” (Research Foundations of the City University of- New York, priority 2007, published 2010).

For series [1], the system named is HOG (human oligodendroglioma) cells. The series can be described thus: Caspase-3/7 assay in HOG cells. It counts as cell-based. The following applies: 20 μM and 50 μM, 48 h or 96 h (FIG. 3). As to the method:
Cells. B16F10 (mouse melanoma), GL261 (mouse glioma), HOG (human oligodendroglioma), A549 (human lung cancer), and […] (mouse neuroblastoma) cells were cultured separately in DMEM containing 10% (v/v) fetal bovine serum and 1% (v/v) penicillin-streptomycin (PS) and allowed to grow to 40% confluence in a 96-well plate. Curcumin Treatment. Two hours before drug treatment, the medium in each well was replaced with 200 μl Neurobasal medium supplemented with 2% (v/v) B27 and 1% (v/v) PS (Drug-treatment Medium). A stock solution (40 mM) of curcumin was prepared in sterile dimethyl sulfoxide (DMSO) (Example 1). Through serial dilution of each stock solution in Drug-treatment Medium, the following concentrations were obtained: 20 μM and 50 μM (for caspase 3/7 assays) or 25 μM and 50 μM (for MTT assays). Drug-treatment Medium in each well was aspirated, and a drug solution of each concentration or carrier-containing medium (control) was added to triplicate wells of cells (50 μl/well). […] Additionally, the background absorbance was determined from parallel wells containing only the Drug-treatment Medium plus a particular concentration of the drug (no cells). […] Fluorescence in each well was measured using the FLx 800 plate reader (Bio-Tek Instruments, Winooski, Vt.) set at 485/20 nm excitation and 528/20 nm emission wavelengths and the sensitivity of 70. […]

Series [2] relates to phospho-Akt. The series can be described thus: Western blot of B16F10 cells, phospho-Akt. Type of series: cell-based, mouse. The following applies: 50 μM (FIG. 9). As to the method: B16F10 cells were cultured in 10-cm plates and then treated in duplicate with carrier or curcumin (50 μM). Following treatment for appropriate time periods, the cells were washed with PBS, lysed in RIPA buffer (PBS containing 1% Nonidet P40, 0.5% sodium deoxycholate, 0.1% SDS, 0.5 mM Na3VO4 plus freshly added PMSF and protease inhibitor cocktail; Boeringer-Roche), and then 20 μg of lysate protein (per lane) were analyzed by SDS-10% PAGE and Western blot analysis. Antibody concentrations used were: anti-phospho-NF-κB (1:1000) (Santa Cruz Biotechnology, Santa Cruz, Calif.), anti-phospho-Akt (1:5000) (Cell Signaling, CA), anti-cyclin D1 (1:1000) (Cell Signaling, CA), anti-BclXL (1:500) (Santa Cruz Biotechnology), anti-VEGF (1:500) (Santa Cruz Biotechnology), and anti-β-actin (1:1000) (Sigma, St. Louis, Mo.).

Series [3] concerns B16F10 cells. Kind of series: Intracranial injection of curcumin on brain tumor cells (B16F10). The following applies: 5 μl of 3 mM curcumin via cannula every other day. Type of series: in vivo, mice. The text has this:
Each mouse was fitted with a stainless steel guide cannula (Plastic Ones, System C313G, Roanoke, Va., USA) to administer curcumin directly to the brain. Cannulas were implanted into the right frontal cortex at the same coordinates as used earlier for intracerebral injection. The guide cannula was fixed to the skull with dental cement. A removable stylet plugged the guide cannula except during the time of drug injection. B16F10 cells (103) were delivered into mice in two sets on the first day. Starting from the third day, 5 μl of curcumin (3 mM) in PBS containing 15% DMSO were infused through the cannula of one set of mice (three), whereas the other set of mice (three) received 5 μl of PBS containing 15% DMSO (carrier). Considering that the brain volume of an adult mouse is about 400 μl, dispersion of this solution would give a final concentration of 37.5 μM curcumin and 0.187% DMSO in the brain. This infusion was started on the third day and then performed every other day, until day 19. The brains of the treated mice were removed and soaked (fixed) in 4% paraformaldehyde.

For series [4] the following is noted: cited from earlier work.

Each structure is given as a SMILES string.

For the compound `COc1cc(/C=C/C(=O)CC(=O)/C=C/c2ccc(O)c(OC)c2)ccc1O` [curcumin], the caspase-3/7 activity result in series [1] is listed as “increased”. Besides, the “phospho-Akt (Western blot)” value in series [2] is on record as “suppression”. Moreover, the “mice with a detectable brain tumor” value in series [3] (day 3 to day 19 (FIG. 11)) is “None”. Further, the behavior entry in series [3] (day 3 to day 19, carrier mice collapsed day 15-25) is “normal behavior”. Besides, the solubility in water result in series [4] is reported as “very low”.
